Source: patent publication US10206902B2, “Mono- or di-substituted indoles as dengue viral replication inhibitors” (priority 2014, dated 2019)

Tests used:
Format in all cases: cell-based
DENV-3 strain H87 = test: Tetravalent RT-qPCR assay Protocol A, serotype 3; details: Dengue virus, DENV3, 72 h, RT-qPCR serotype 3 H87, Vero cells, day 3
Experimental: (§1) The antiviral activity of the compounds of the invention was tested against DENV-1 strain TC974#666 (NCPV), DENV-2 strain 16681, DENV-3 strain H87 (NCPV) and DENV-4 strains H241 (NCPV) and EDEN (SG/06K2270DK1/2005; GenBank accession number QG398256) in a RT-qPCR assay. Therefore, Vero cells were infected with either DENV-1, or -2, or -3, or -4 in the presence or absence of test compounds. At day 3 post-infection, the cells were lysed and cell lysates were used to prepare cDNA of both a viral target (the 3′UTR of DENV; table 2) and a cellular reference gene (β-actin, table 2). Subsequently, a duplex real time PCR was performed on a Lightcycler480 instrument. The generated Cp value is inversely proportional to the amount of RNA expression of these targets. Inhibition of DENV replication by a test compound result in a shift of Cp's for the 3′UTR gene. On the other hand, if a test compound is toxic to the cells, a similar effect on β-actin expression will be observed. The comparative ΔΔCp method is used to calculate EC50, which is based on the relative gene expression of the target gene (3′UTR) normalized with the cellular housekeeping gene (β-actin). In addition, CC50 values were determined based on the Cp values acquired for the housekeeping gene β-actin.
(§2) The culture medium consisted of minimal essential medium supplemented with 2% of heat-inactivated fetal calf serum, 0.04% gentamycin (50 mg/mL) and 2 mM of L-glutamine. Vero cells, obtained from ECACC, were suspended in culture medium and 75 μL/well was added in 96-well plates (10000 cells/well), which already contain the antiviral compounds. Typically, these plates contain a 4-fold serial dilution of 9 dilution steps of the test compound at 200 times the final concentration in 100% DMSO (500 nL; final concentration range: 25 μM-0.00038 μM). In addition, each plate contains wells which are assigned as virus controls (containing cells and virus in the absence of compound) and cell controls (containing cells in the absence of virus and compound). Once the cells were added in the plates, the plates were incubated in a fully humidified incubator (37° C., 5% CO2) until the next day. Then, DENV-1 strain TC974#666, DENV-2 strain 16681, DENV-3 strain H87 or DENV-4 strains H241 or EDEN were added. […] In parallel, 25 μL of culture medium was added to the cell controls. Next, the plates were incubated for 3 days in a fully humidified incubator (37° C., 5% CO2). After 3 days, the supernatant was removed from the wells and the cells were washed twice with ice-cold PBS (˜100 μL). The cell pellets within the 96-well plates were stored at −80° C. for at least 1 day. Next, RNA was extracted using the Cells-to-CT™ lysis kit, according to the manufacture's guideline (Applied Biosystems). The cell lysates can be stored at −80° C. or immediately used in the reverse transcription step. In preparation of the reverse transcription step, mix A (table 3A) was prepared and 7.57 μL/well was dispensed in a 96-well plate. After addition of 5 μL of the cell lysates, a five minute denaturation step at 75° C. was performed (table 3B). Afterwards, 7.43 μL of mix B was added (table 3C) and the reverse transcription step was initiated (table 3D) to generate cDNA.
(§3) Finally, a RT-qPCR mix was prepared, mix C (table 4A), dispensed in 96-well LightCycler qPCR plates to which 3 μL of cDNA was added and the qPCR was performed according to the conditions in table 4B on a LightCycler 480. Using the LightCycler software and an in-house LIMS system, dose response curves for each compound were calculated and the half maximal effective concentration (EC50) and the half maximal cytotoxic concentration (CO50) were determined (Tables 6-9).

[1] = system: DENV-1 Djibouti strain D1/H/IMTSSA/98/606; test: Tetravalent RT-qPCR assay Protocol B, serotype 1; details: Dengue virus, DENV1, Vero, 168 h
Experimental: (§4) Vero cells (4×10^4) were seeded in 96-well plates. […] Following a 2 hour incubation period, the cell monolayer was washed 3 times with assay medium to remove residual, non-adsorbed virus and cultures were further incubated for either 4 days (DENV-2 NGC-Tongalike) or 7 days (DENV-1 Djibouti strain D1/H/IMTSSA/98/606, DENV-3 strain H87 prototype, DENV-4 strain H241′) in the presence of the inhibitor. Supernatant was harvested and viral RNA load was determined by real-time quantitative RT-PCR. The 50% effective concentration (EC50), which is defined as the compound concentration that is required to inhibit viral RNA replication by 50%, was determined using logarithmic interpolation (Tables 7 and 8). RNA was isolated from 100 μL supernatant with the NucleoSpin 96 Virus kit (Filter Service, Duren, Germany) as described by the manufacturer. The sequences of the TaqMan primers (DENV-For, DENV-Rev; Table 5) and TaqMan probes (DENV-Probe Table 5) were selected from non-structural gene 3 (NS3) or NS5, of the respective flaviviruses using Primer Express software (version 2.0; Applied Biosystems, Lennik, Belgium). The TaqMan probe was fluorescently labelled with 6-carboxyfluorescein (FAM) at the 5′ end as the reporter dye, and with minor groove binder (MGB) at the 3′ end as the quencher (Table 5). One-step, quantitative RT-PCR was performed in a total volume of 25 μL, containing 13.9375 μL H2O, 6.25 μL master mix (Eurogentec, Seraing, Belgium), 0.375 μL forward primer, 0.375 μL reverse primer, 1 μL probe, 0.0625 μL reverse transcriptase (Eurogentec) and 3 μL sample. RT-PCR was performed using the ABI 7500 Fast Real-Time PCR System (Applied Biosystems, Branchburg, N.J., USA) using the following conditions: 30 min at 48° C. and 10 min at 95° C., followed by 40 cycles of 15 s at 95° C. and 1 min at 60° C. The data was analyzed using the ABI PRISM 7500 SDS software (version 1.3.1; Applied Biosystems). For absolute quantification, standard curves were generated using 10-fold dilutions of template preparations of known concentrations.

DENV-1 strain TC974#666 = test: Tetravalent RT-qPCR assay Protocol A, serotype 1; details: Dengue virus, DENV1, 72 h, RT-qPCR serotype 1 TC974#666, Vero cells, day 3
Experimental: as §1, §2, §3

DENV-2 NGC-Tongalike = test: Tetravalent RT-qPCR assay Protocol B, serotype 2; details: Dengue virus, DENV2, Vero, 96 h
Experimental: as §4

DENV-4 strain EDEN = test: Tetravalent RT-qPCR assay Protocol A, serotype 4 EDEN; details: Dengue virus, DENV4, 72 h, RT-qPCR serotype 4 EDEN, Vero cells, day 3
Experimental: as §1, §2, §3

DENV-2 strain 16681 = test: Tetravalent RT-qPCR assay Protocol A, serotype 2; details: Dengue virus, DENV2, 72 h, RT-qPCR serotype 2 16681, Vero cells, day 3
Experimental: as §1, §2, §3

SMILES | EC50 (DENV-3 strain H87) [nM] | EC50 [1] [nM] | EC50 (DENV-1 strain TC974#666) [nM] | EC50 (DENV-2 NGC-Tongalike) [nM] | EC50 (DENV-4 strain EDEN) [nM] | EC50 (DENV-2 strain 16681) [nM]
COc1cc(NC(C(=O)c2c[nH]c3cc(F)ccc23)c2ccc(F)cc2OC)cc(OCCO)c1 (single isomer, unassigned) [Compound 1A, 1-(6-fluoro-1H-indol-3-yl)-2-(4-fluoro-2-methoxyphenyl)-2-((3-(2-hydroxyethoxy)-5-methoxyphenyl)amino)ethanone] | 120 | 40 | 18 | 1 | 12 | 3.2
COc1cc(NC(C(=O)c2c[nH]c3c(C)c(F)ccc23)c2ccc(F)cc2OC)cc(OCCO)c1 (single isomer, unassigned) [Compound 2B, 2-(4-fluoro-2-methoxyphenyl)-1-(6-fluoro-7-methyl-1H-indol-3-yl)-2-((3-(2-hydroxyethoxy)-5-methoxyphenyl)amino)ethanone] | 110 | 41 | 13 | 0.81 | 11 | 2.3
COc1cc(NC(C(=O)c2c[nH]c3c(C)c(Cl)ccc23)c2ccc(F)cc2OC)cc(OCCO)c1 (single isomer, unassigned) [Compound 3A, 1-(6-chloro-7-methyl-1H-indol-3-yl)-2-(4-fluoro-2-methoxyphenyl)-2-((3-(2-hydroxyethoxy)-5-methoxyphenyl)amino)ethanone] | 88 | 45 | 16 | < 0.28 | 16 | 0.79
COc1cc(NC(C(=O)c2c[nH]c3cc(Cl)ccc23)c2ccc(F)cc2OC)cc(OCCO)c1 (single isomer, unassigned) [Compound 4A, 1-(6-chloro-1H-indol-3-yl)-2-(4-fluoro-2-methoxyphenyl)-2-((3-(2-hydroxyethoxy)-5-methoxyphenyl)amino)ethanone] | 140 | 27 | 20 | < 0.29 | 16 | 1.6
COc1cc(NC(C(=O)c2c[nH]c3c(F)c(F)ccc23)c2ccc(F)cc2OC)cc(OCCO)c1 (single isomer, unassigned) [Compound 5B, 1-(6,7-difluoro-1H-indol-3-yl)-2-(4-fluoro-2-methoxyphenyl)-2-((3-(2-hydroxyethoxy)-5-methoxyphenyl)amino)ethanone] | 190 | 65 | 27 | 0.44 | 24 | 3.6
COc1cc(NC(C(=O)c2c[nH]c3cc(OC)c(C)cc23)c2ccc(F)cc2OC)cc(OCCO)c1 (single isomer, unassigned) [Compound 6A, 2-(4-fluoro-2-methoxyphenyl)-2-((3-(2-hydroxyethoxy)-5-methoxyphenyl)amino)-1-(6-methoxy-5-methyl-1H-indol-3-yl)ethanone] | 130 | 21 | 16 | < 0.35 | 13 | 1.7
COc1cc(NC(C(=O)c2c[nH]c3cc(OC)c(F)cc23)c2ccc(F)cc2OC)cc(OCCO)c1 (single isomer, unassigned) [Compound 7A, 2-(4-fluoro-2-methoxyphenyl)-1-(5-fluoro-6-methoxy-1H-indol-3-yl)-2-((3-(2-hydroxyethoxy)-5-methoxyphenyl)amino)ethanone] | 190 | 55 | 29 | 1.6 | 23 | 3.4
COc1cc(NC(C(=O)c2c[nH]c3c(Cl)c(OC)ccc23)c2ccc(F)cc2OC)cc(OCCO)c1 (single isomer, unassigned) [Compound 8A, 1-(7-chloro-6-methoxy-1H-indol-3-yl)-2-(4-fluoro-2-methoxyphenyl)-2-((3-(2-hydroxyethoxy)-5-methoxyphenyl)amino)ethanone] | 200 | 49 | 32 | < 0.24 | 21 | 0.9
COc1cc(NC(C(=O)c2c[nH]c3c(C)cc(F)cc23)c2ccc(F)cc2OC)cc(OCCO)c1 (single isomer, unassigned) [Compound 9B, 2-(4-fluoro-2-methoxyphenyl)-1-(5-fluoro-7-methyl-1H-indol-3-yl)-2-((3-(2-hydroxyethoxy)-5-methoxyphenyl)amino)ethanone] | 190 | 42 | 19 | 0.8 | 20 | 3.2
COc1cc(NC(C(=O)c2c[nH]c3cc(F)c(F)cc23)c2ccc(F)cc2OC)cc(OCCO)c1 (single isomer, unassigned) [Compound 10B, 1-(5,6-difluoro-1H-indol-3-yl)-2-(4-fluoro-2-methoxy-phenyl)-2-((3-(2-hydroxyethoxy)-5-methoxyphenyl)amino)ethanone] | 130 | 52 | 16 | 1.6 | 20 | 3.2
COc1cc(NC(C(=O)c2c[nH]c3c(C)c(OC)ccc23)c2ccc(F)cc2OC)cc(OCCO)c1 (single isomer, unassigned) [Compound 11A, 2-(4-fluoro-2-methoxyphenyl)-2-((3-(2-hydroxyethoxy)-5-methoxyphenyl)amino)-1-(6-methoxy-7-methyl-1H-indol-3-yl)ethanone] | 85 | 23 | 20 | 0.68 | 15 | 0.84
